According to ChEMBL document CHEMBL5518188, “Discovery of 4-amino-1,6-dihydro-7H-pyrrolo[2,3-d]pyridazin-7-one derivatives as potential receptor-interacting serine/threonine-protein kinase 1 (RIPK1) inhibitors” (Eur J Med Chem, 2024):
Activity calls are given as the source filed them. The calls are words filed in the database; no cut-off is given here.

Assays:
[1] = Tmax in BALB/c mouse at 5 mg/kg, iv; format: ADME, organism-based; details: in vivo
[2] = test system: U-937; test: Anti-necroptosis activity against TSZ-induced human U-937 cells; format: functional, cell-based
[3] = AUC (0 to t) in BALB/c mouse at 10 mg/kg, po; format: ADME, organism-based; details: in vivo, po, 10 mg/kg
[4] = Cmax in BALB/c mouse at 5 mg/kg, iv; format: ADME, organism-based; details: in vivo
[5] = Oral bioavailability in BALB/c mouse at 10 mg/kg; format: ADME, organism-based; details: in vivo; for bioavailability: BALB/c
[6] = AUC (0 to t) in BALB/c mouse at 5 mg/kg, iv; format: ADME, organism-based; details: in vivo
[7] = Metabolic stability in cryopreserved human liver microsome assessed as half life; format: ADME; details: cryopreserved liver microsomes
[8] = Apparent volume of distribution in BALB/c mouse at 10 mg/kg, po; format: ADME, organism-based; details: in vivo
[9] = Tmax in BALB/c mouse at 10 mg/kg, po; format: ADME, organism-based; details: in vivo
[10] = Half life in BALB/c mouse at 5 mg/kg, iv; format: ADME, organism-based; details: in vivo
[11] = Half life in BALB/c mouse at 10 mg/kg, po; format: ADME, organism-based; details: in vivo
[12] = test system: L929; test: Anti-necroptosis activity against TSZ-induced mouse L929 cells; format: functional, cell-based
[13] = test system: HT-29; test: Anti-necroptosis activity against TSZ-induced human HT-29 cells; format: functional, cell-based
[14] = target: T1, Receptor-interacting serine/threonine-protein kinase 1 (Homo sapiens, UniProt Q13546); test: Inhibition of RIPK1 (unknown origin) in presence of ATP by kinaseProfiler assay
T1 sequence (Q13546 whole entry): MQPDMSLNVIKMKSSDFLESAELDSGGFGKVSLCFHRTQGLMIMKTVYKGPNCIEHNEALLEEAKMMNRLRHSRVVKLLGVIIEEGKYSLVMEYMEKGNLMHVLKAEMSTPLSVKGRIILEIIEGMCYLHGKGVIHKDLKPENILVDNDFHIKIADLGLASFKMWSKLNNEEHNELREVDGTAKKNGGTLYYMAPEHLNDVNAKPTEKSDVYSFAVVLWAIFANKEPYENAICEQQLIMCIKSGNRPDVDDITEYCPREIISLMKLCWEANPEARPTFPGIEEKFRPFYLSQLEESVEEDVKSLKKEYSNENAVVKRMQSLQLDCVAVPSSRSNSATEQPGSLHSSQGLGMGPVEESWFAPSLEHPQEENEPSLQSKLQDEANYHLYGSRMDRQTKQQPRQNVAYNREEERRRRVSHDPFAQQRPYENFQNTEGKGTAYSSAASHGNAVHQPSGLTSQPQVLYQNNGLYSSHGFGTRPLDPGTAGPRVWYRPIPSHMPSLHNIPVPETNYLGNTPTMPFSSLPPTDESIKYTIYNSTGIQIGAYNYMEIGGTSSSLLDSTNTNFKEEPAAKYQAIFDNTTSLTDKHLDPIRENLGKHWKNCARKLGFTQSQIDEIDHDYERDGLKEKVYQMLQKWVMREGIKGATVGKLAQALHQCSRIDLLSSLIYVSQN

[15] = Cmax in BALB/c mouse at 10 mg/kg, po; format: ADME, organism-based; details: in vivo
[16] = test system: Mus musculus; test: In vivo anti-necrotptic activity in SIRS mouse model assessed as protection from body temperature loss at 10 mg/kg, po measured upto 6 hrs; format: functional, organism-based
[17] = Cmax in BALB/c mouse at 10 mg/kg, iv; format: ADME, organism-based; details: in vivo
[18] = Clearance in BALB/c mouse at 10 mg/kg, po; format: ADME, organism-based; details: in vivo, po, 10 mg/kg
[19] = Apparent volume of distribution in BALB/c mouse at 10 mg/kg, iv; format: ADME, organism-based; details: in vivo, read-out: Vz
[20] = Clearance in BALB/c mouse at 10 mg/kg, iv; format: ADME, organism-based; details: in vivo
[21] = Half life in BALB/c mouse at 10 mg/kg, iv; format: ADME, organism-based; details: in vivo
[22] = AUC (0 to t) in BALB/c mouse at 10 mg/kg, iv; format: ADME, organism-based; details: in vivo, iv, 10 mg/kg
[23] = Tmax in BALB/c mouse at 10 mg/kg, iv; format: ADME, organism-based; details: in vivo

| SMILES | half-life [7] [min] | IC50 [14] [nM] | EC50 [2] [nM] | EC50 [12] [nM] | EC50 [13] [nM] | also measured |
| --- | --- | --- | --- | --- | --- | --- |
| CN1C(=O)[C@@H](NC(=O)c2n[nH]c(Cc3ccccc3)n2)COc2ccccc21 [GSK2982772] | – | – | 1.27 | 1260 | 2.78 | Activity [16]: Active |
| Nc1n[nH]c(=O)c2c1c(-c1ccc3c(c1)CCN3C(=O)Cc1cccc(C(F)(F)F)c1)cn2CC1CC1 | 119 | 125 | 1.88 | 1.17 | 6.01 | AUCt [3]: 2048.56 ng·h/mL; Cmax [17]: 45.5 ng/mL; F ([5]; po, 10 mg/kg): 22.49%; CL [18]: 48.7 mL/min/kg; Vz [8]: 2.8 L/kg; Tmax [9]: 8.4 min; Vd [19]: 91 L/kg; clearance [20]: 48.7 mL/min/kg; t1/2 ([11]; po, 10 mg/kg): 1259 min; half-life [21]: 1260 min; Cmax [15]: 45.5 ng/mL; AUCt [22]: 2048.56 ng·h/mL; Tmax [23]: 120 min |
| CCn1cc(-c2ccc3c(c2)CCN3C(=O)Cc2cccc(OC(F)(F)F)c2)c2c(N)n[nH]c(=O)c21 | 66.6 | 60.5 | 1.74 | 5.99 | 5.45 | – |
| CC(C)Cn1cc(-c2ccc3c(c2)CCN3C(=O)Cc2cccc(OC(F)(F)F)c2)c2c(N)n[nH]c(=O)c21 | 19.6 | 44.7 | 1.84 | 8.8 | 1.61 | – |
| Nc1n[nH]c(=O)c2c1c(-c1ccc3c(c1)CCN3C(=O)Cc1cccc(OC(F)(F)F)c1)nn2CC1CCCC1 | 49.9 | 95.9 | 12.7 | 3.95 | 15.7 | – |

More lines, main results first:

| half-life [7] [min] | IC50 [14] [nM] | SMILES | EC50 [2] [nM] | EC50 [12] [nM] | EC50 [13] [nM] | also measured |
| --- | --- | --- | --- | --- | --- | --- |
| 48.8 | 110 | Nc1n[nH]c(=O)c2c1c(-c1ccc3c(c1)CCN3C(=O)Cc1cccc(OC(F)(F)F)c1)nn2CC1CC1 | 3.89 | 0.48 | 2.61 | Tmax [1]: 8.4 min; AUCt [3]: 6121.97 ng·h/mL; Cmax [4]: 3290 ng/mL; bioavailability [5]: 44.1%; AUC(0-t) [6]: 6930 ng·h/mL; Vz [8]: 6007.49 L/kg; Tmax [9]: 60 min; half-life [10]: 702 min; half-life ([11]; BALB/c): 155 min; Cmax [15]: 1090 ng/mL |
| 26.4 | 98.7 | CC1(Cn2nc(-c3ccc4c(c3)CCN4C(=O)Cc3cccc(OC(F)(F)F)c3)c3c(N)n[nH]c(=O)c32)CC1 | 10.2 | 13.2 | 37.5 | – |
| > 120 | 42.7 | CCn1nc(-c2ccc3c(c2)CCN3C(=O)Cc2cccc(OC(F)(F)F)c2)c2c(N)n[nH]c(=O)c21 | 4.45 | 9.79 | 16.1 | bioavailability [5]: 4.36% |
| 21.1 | 120 | CCCn1nc(-c2ccc3c(c2)CCN3C(=O)Cc2cccc(OC(F)(F)F)c2)c2c(N)n[nH]c(=O)c21 | 0.46 | 1.42 | 6.84 | – |
| 13.2 | 79.8 | CC1(Cn2nc(-c3ccc4c(c3)CCN4C(=O)Cc3cccc(OC(F)(F)F)c3)c3c(N)n[nH]c(=O)c32)COC1 | 3.9 | 1.85 | 5.57 | – |
